# Legend:
# [1] = system: apoE knockout mice (apoE-KO mice); settings: inhalation of gas mixture with approximately 2% hydrogen gas
# Text: (§1) The size of this container was as follows: W: 550 mm; L: 400 mm; and H: 300 mm.
# (§2) Then, effects on body fat and the liver were examined. 9-week-old male apoE-KO mice were placed in cages (4 mice each). One group was designated as a control group and normal air was supplied thereto.
# [2] = system: apoE knockout mice (apoE-KO mice); settings: 11 weeks after hydrogen administration, approximately 2% hydrogen gas inhalation
# Text: as §1, §2
# 11 weeks after hydrogen administration, the mice were subjected to measurement of muscle force. Upon measurement, each mouse was allowed to hold a mesh wire of the ceiling and the time period until it fell from the ceiling was determined.
# [3] = system: apoE knockout mice (apoE-KO mice); settings: approximately 2% hydrogen gas inhalation, vs control group
# Protocol: as §1, §2
# Next, each mouse was analyzed with an X-ray CT for laboratory animals (LaTheta LCT-100A, Aloka Co., Ltd.). General anesthesia induction was carried out by supplying an anesthetic gas mixture (oxygen: 0.3 L/min; nitrous-oxide gas: 0.7 L/min; Sevofrane: 3% (Maruishi Pharmaceutical Co., Ltd.)) to each mouse with the use of a general anesthesia apparatus for small animals (Soft Lander, NeuroScience, Inc). CT scanning was carried out under anesthesia so as to obtain whole-body images (FIG. 9, upper images). Then, fat regions were determined based on CT values so as to specify subcutaneous fat and visceral fat (FIG. 9, lower images). Each cross-sectional area was multiplied by the thickness so as to obtain the volume, followed by estimation of the fat and muscle weights. […] In addition, fat percentages were obtained by the following equation.
# Fat percentage (%)=fat [visceral fat+subcutaneous fat]/(fat [visceral fat+subcutaneous fat]+muscle)×100
# [4] = system: apoE knockout mice (apoE-KO mice); assay: Serum items, organ weights and fat accumulated in the liver 12 weeks after hydrogen gas inhalation; type: in vivo, mouse; settings: 12 weeks hydrogen gas inhalation, vs control group
# Protocol: The amounts of the following items in serum were measured: total cholesterol, LDL cholesterol, HDL cholesterol, neutral fat, AST, ALT, creatinine kinase, total protein, lactate dehydrogenase, urea nitrogen, total bilirubin, creatinine, alkaline phosphatase, choline esterase, and albumine. […] Each liver was fixed with 4% paraformaldehyde overnight, followed by dehydration with sucrose. Thereafter, frozen sections were prepared and stained with Oil-Red O. Then, the amount of lipids accumulated in the liver was calculated (FIG. 13A, images). The stained portions indicate fat accumulation.
# [5] = hydrogen pressure of 1 atmosphere, room temperature; cited from earlier work
smiles,measurement,setting,value
[HH] [hydrogen gas],weight increases vs control group,[1],significantly suppressed
same,muscle force: time period until mouse fell from mesh wire of the ceiling,[2],significantly long time
same,amount of subcutaneous fat (CT),[3],significantly decreased
same,amount of total fat (CT),[3],significantly decreased
same,amount of visceral fat (CT),[3],significantly decreased
same,"fat percentage (fat/(fat+muscle) x100, CT)",[3],more significantly decreased
same,kidney weight,[4],significantly decreased
same,liver weight,[4],significantly decreased
same,serum ALT,[4],no difference was observed
same,serum AST,[4],no difference was observed
same,serum HDL cholesterol,[4],no difference was observed
same,serum LDL cholesterol,[4],no difference was observed
same,serum albumine,[4],no difference was observed
same,serum alkaline phosphatase,[4],no difference was observed
same,serum choline esterase,[4],no difference was observed
same,serum creatinine,[4],no difference was observed
same,serum creatinine kinase,[4],no difference was observed
same,serum lactate dehydrogenase,[4],no difference was observed
same,serum neutral fat,[4],no difference was observed
same,serum total bilirubin,[4],no difference was observed
same,serum total cholesterol,[4],no difference was observed
same,serum total protein,[4],no difference was observed
same,serum urea nitrogen,[4],no difference was observed
same,hydrogen dissolved in 1 L of water,[5],approximately 17.5 mL

# — US20090246290A1, “Lipid metabolism improving agent containing hydrogen molecules” (priority 2006, published 2009)
